Consider one compound from patent EP0549433A1, “Use of N'-substituted N-phenylsulfonylureas in the treatment of hypertension in insulin-resistant patients” (ADIR ET COMPAGNIE, priority 1991, dated 1993).

The test system of this experiment is rat âgé. The experiment is described as follows: Chronic treatment of the aged rat: arterial blood pressure. The class given is in vivo. The settings on record: young rat (3 months per Tableau 1); 0,1 à 1 mg /kg par jour for 2 weeks. How it is done:
Etude du traitement chronique du rat âgé
Au cours du vieillissement, une insulino-résistance apparaît, accompagnée d'une hyperinsulinémie et d'une élévation de la pression artérielle (cf tableau 1 ci-après).
A titre d'exemple, le traitement par le gliclazide à la dose de 0,1 à 1 mg /kg par jour pendant 2 semaines, diminue la pression artérielle du rat âgé de 9.10² à 11.10² Pa sans modifier celle du rat jeune.

In the case of `Cc1ccc(S(=O)(=O)NC(=O)NN2CC3CCCC3C2)cc1` (stereo not shown) [gliclazide], the “pression artérielle du rat jeune” value is reported as “sans modifier”.
